Results taken from BigSolDB 2.1.

`C[C@@H]1CC[C@@]2(OC1)O[C@H]1C[C@H]3[C@@H]4CC=C5C[C@@H](O)CC[C@]5(C)[C@H]4CC[C@]3(C)[C@H]1[C@@H]2C` showed a solubility (mole fraction) (in acetone, 295.15 K) of 0.000904, a solubility (mole fraction) (in acetone, 302.15 K) of 0.00115 and a solubility (mole fraction) (in acetone, 304.65 K) of 0.00127. It also gave a solubility (mole fraction) (in acetone, 308.15 K) of 0.0014, a solubility (mole fraction) (in acetone, 310.15 K) of 0.00149 and a solubility (mole fraction) (in acetone, 312.15 K) of 0.00159. It also gave a solubility (mole fraction) (in acetone, 313.65 K) of 0.0017, a solubility (mole fraction) (in acetone, 315.65 K) of 0.00184 and a solubility (mole fraction) (in acetone, 317.15 K) of 0.00194. It also gave a solubility (mole fraction) (in acetone, 319.15 K) of 0.00204, a solubility (mole fraction) (in acetone, 321.15 K) of 0.00217 and a solubility (mole fraction) (in acetone, 322.65 K) of 0.0023. For the same compound, the solubility (mole fraction) (in acetone, 324.65 K) was 0.00243, the solubility (mole fraction) (in acetone, 326.65 K) was 0.00256 and the solubility (mole fraction) (in acetone, 327.65 K) was 0.00267. The solubility (mole fraction) (in acetone, 329.15 K) was 0.00279, the solubility (mole fraction) (in acetone, 330.15 K) was 0.00292 and the solubility (mole fraction) (in acetone, 332.15 K) was 0.00303. It also gave a solubility (mole fraction) (in ethanol, 299.15 K) of 0.00133, a solubility (mole fraction) (in ethanol, 303.15 K) of 0.00144 and a solubility (mole fraction) (in ethanol, 306.15 K) of 0.00153. The solubility (mole fraction) (in ethanol, 308.65 K) was 0.00161, the solubility (mole fraction) (in ethanol, 311.65 K) was 0.00169 and the solubility (mole fraction) (in ethanol, 313.65 K) was 0.00175. It also gave a solubility (mole fraction) (in ethanol, 315.65 K) of 0.00184, a solubility (mole fraction) (in ethanol, 317.15 K) of 0.00193 and a solubility (mole fraction) (in ethanol, 319.15 K) of 0.002. The solubility (mole fraction) (in ethanol, 320.65 K) was 0.00208, the solubility (mole fraction) (in ethanol, 322.65 K) was 0.00215 and the solubility (mole fraction) (in ethanol, 324.15 K) was 0.00224. It also gave a solubility (mole fraction) (in ethanol, 326.15 K) of 0.00233, a solubility (mole fraction) (in ethanol, 327.65 K) of 0.00241 and a solubility (mole fraction) (in ethanol, 328.65 K) of 0.00249. It also gave a solubility (mole fraction) (in ethanol, 329.65 K) of 0.00258, a solubility (mole fraction) (in ethanol, 330.65 K) of 0.00268 and a solubility (mole fraction) (in ethanol, 331.65 K) of 0.00276. For the same compound, the solubility (mole fraction) (in ethanol, 332.65 K) was 0.00284, the solubility (mole fraction) (in ethyl acetate, 300.65 K) was 0.0024 and the solubility (mole fraction) (in ethyl acetate, 302.15 K) was 0.00258. The solubility (mole fraction) (in ethyl acetate, 303.15 K) was 0.00276, the solubility (mole fraction) (in ethyl acetate, 303.65 K) was 0.00294 and the solubility (mole fraction) (in ethyl acetate, 305.15 K) was 0.00317. For the same compound, the solubility (mole fraction) (in ethyl acetate, 307.15 K) was 0.00338, the solubility (mole fraction) (in ethyl acetate, 308.65 K) was 0.0036 and the solubility (mole fraction) (in ethyl acetate, 310.65 K) was 0.00383. It also gave a solubility (mole fraction) (in ethyl acetate, 311.65 K) of 0.00402, a solubility (mole fraction) (in ethyl acetate, 313.65 K) of 0.00423 and a solubility (mole fraction) (in ethyl acetate, 315.65 K) of 0.00447. The solubility (mole fraction) (in ethyl acetate, 316.65 K) was 0.00466, the solubility (mole fraction) (in ethyl acetate, 318.15 K) was 0.00492 and the solubility (mole fraction) (in ethyl acetate, 320.15 K) was 0.00523. For the same compound, the solubility (mole fraction) (in ethyl acetate, 321.65 K) was 0.00545, the solubility (mole fraction) (in ethyl acetate, 323.15 K) was 0.00577 and the solubility (mole fraction) (in ethyl acetate, 324.65 K) was 0.00602. It also gave a solubility (mole fraction) (in ethyl acetate, 326.65 K) of 0.00628, a solubility (mole fraction) (in ethyl acetate, 327.65 K) of 0.0065 and a solubility (mole fraction) (in ethyl acetate, 328.95 K) of 0.00673. The solubility (mole fraction) (in isopropanol, 293.15 K) was 0.000835, the solubility (mole fraction) (in isopropanol, 296.65 K) was 0.000975 and the solubility (mole fraction) (in isopropanol, 300.65 K) was 0.00111. It also gave a solubility (mole fraction) (in isopropanol, 303.15 K) of 0.00123, a solubility (mole fraction) (in isopropanol, 304.65 K) of 0.00134 and a solubility (mole fraction) (in isopropanol, 306.65 K) of 0.00145. The solubility (mole fraction) (in isopropanol, 308.65 K) was 0.00157, the solubility (mole fraction) (in isopropanol, 311.15 K) was 0.00167 and the solubility (mole fraction) (in isopropanol, 314.65 K) was 0.00178. The solubility (mole fraction) (in isopropanol, 317.15 K) was 0.00192, the solubility (mole fraction) (in isopropanol, 319.15 K) was 0.00203 and the solubility (mole fraction) (in isopropanol, 321.15 K) was 0.00216. It also gave a solubility (mole fraction) (in isopropanol, 324.65 K) of 0.0023, a solubility (mole fraction) (in isopropanol, 326.15 K) of 0.00241 and a solubility (mole fraction) (in isopropanol, 328.15 K) of 0.00253. It also gave a solubility (mole fraction) (in isopropanol, 330.15 K) of 0.00267, a solubility (mole fraction) (in isopropanol, 332.15 K) of 0.00282 and a solubility (mole fraction) (in methanol, 291.15 K) of 0.000187. It also gave a solubility (mole fraction) (in methanol, 298.15 K) of 0.000257, a solubility (mole fraction) (in methanol, 300.15 K) of 0.000325 and a solubility (mole fraction) (in methanol, 308.15 K) of 0.000401. The solubility (mole fraction) (in methanol, 312.65 K) was 0.000469, the solubility (mole fraction) (in methanol, 315.15 K) was 0.00051 and the solubility (mole fraction) (in methanol, 317.65 K) was 0.000556. It also gave a solubility (mole fraction) (in methanol, 319.65 K) of 0.0006, a solubility (mole fraction) (in methanol, 322.15 K) of 0.000643 and a solubility (mole fraction) (in methanol, 323.65 K) of 0.000694. The solubility (mole fraction) (in methanol, 325.65 K) was 0.000743, the solubility (mole fraction) (in methanol, 327.15 K) was 0.000795 and the solubility (mole fraction) (in methanol, 328.15 K) was 0.000847. It also gave a solubility (mole fraction) (in methanol, 329.15 K) of 0.00091, a solubility (mole fraction) (in methanol, 331.65 K) of 0.000994 and a solubility (mole fraction) (in n-propyl acetate, 296.15 K) of 0.0021. For the same compound, the solubility (mole fraction) (in n-propyl acetate, 300.15 K) was 0.00263, the solubility (mole fraction) (in n-propyl acetate, 306.65 K) was 0.00313 and the solubility (mole fraction) (in n-propyl acetate, 307.15 K) was 0.00321. It also gave a solubility (mole fraction) (in n-propyl acetate, 310.15 K) of 0.00356, a solubility (mole fraction) (in n-propyl acetate, 314.65 K) of 0.00402 and a solubility (mole fraction) (in n-propyl acetate, 317.65 K) of 0.00442. For the same compound, the solubility (mole fraction) (in n-propyl acetate, 319.65 K) was 0.0047, the solubility (mole fraction) (in n-propyl acetate, 322.15 K) was 0.00495 and the solubility (mole fraction) (in n-propyl acetate, 323.65 K) was 0.0053. For the same compound, the solubility (mole fraction) (in n-propyl acetate, 325.15 K) was 0.00543, the solubility (mole fraction) (in n-propyl acetate, 327.15 K) was 0.00575 and the solubility (mole fraction) (in n-propyl acetate, 328.65 K) was 0.00616. It also gave a solubility (mole fraction) (in n-propyl acetate, 329.15 K) of 0.00612.
